Reference: patent EP3655424B1, “PEPTIDES MODULATING SPERM MOTILITY BY MODULATING THE PHOSPHOPROTEIN PHOSPHATASE 1 COMPLEX” (University of Wolverhampton, priority 2017, dated 2021)
Where two headings read alike, the source gives them in different places.

Experiments:
bovine spermatozoa [1] = assay: Motility assay (Sperm Class Analyzer CASA System), bovine sperm; format: cell-based; conditions: for concentration-dependent effect on motility parameters: 10 µM versus 20 µM
Method: (§1) This study was approved by the Ethics and Internal Review Board of the Hospital Infante D. Pedro E.P.E. (Aveiro, Portugal) and was conducted in accordance with the ethical standards of the Helsinki Declaration. Human semen samples were obtained from a randomized group of donors, by masturbation to a sterile container. All donors signed informed consent allowing the samples to be used for scientific purposes. Basic semen analysis was performed according to World Health Organization (WHO) guidelines. Fresh semen from Holstein Frisian bulls was obtained from LusoGenes, LDA (Aveiro, Portugal). Semen was collected by artificial vagina and assessed by a certified veterinarian. Human and bovine spermatozoa were isolated and washed from seminal plasma by centrifugation (800 g for 5 min, 3 times) using ALLGrade Wash medium (LifeGlobal, Brussels, Belgium). Spermatozoa pellets were resuspended in medium to a final concentration of 20x10^6 cells/0.5 mL and incubated at 37°C with 5 % CO2 until the appropriated treatments were added.
(§2) Peptides (PPP1CC2-CT, TAMRA-PPP1CC2-CT, AKAP4 and AKAP4 M) were added to bovine and human sperm samples in total volume of 500 µl containing approximately 2 x10^7 sperm cells per well. Control samples included sperm cells in medium alone. The influence of bioportides on sperm motility parameters was assessed using the Sperm Class Analyzer CASA System (Microptic S L, Barcelona, Spain) with SCA® v5.4 software. Samples and controls (2 µl) were loaded into individual chambers of Leja Standrat Count 8 chamber slide 20 µm depth (Leja Products B. V., The Netherlands) which were pre-heated at 37 °C. This temperature was maintained while at least 1000 sperm cells/per measurement were evaluated. Each peptide was tested on samples from 3 individual donors and all the conditions were performed in triplicate.
(§3) Bovine and human spermatozoa were exposed to different extracellular peptide concentrations (10 and 20 µM) and motility parameters were assessed at 1 and 2 h. For reference, negative controls were performed in the absence of peptides.

human spermatozoa [2] = assay: Motility assay (Sperm Class Analyzer CASA System), human sperm; format: cell-based; conditions: for motility parameters / immotile spermatozoa increased (printed: mean decrease) / mean decrease in fast progressive motility / mean decrease in non-progressive motility / mean decrease in slow progressive motility: human spermatozoa; for immotile spermatozoa increased (printed: mean decrease) / mean decrease in fast progressive motility / mean decrease in non-progressive motility / mean decrease in slow progressive motility: 20 µM
Method: as §1, §2, §3

bovine spermatozoa [3] = assay: Intracellular accumulation / quantitative translocation of TAMRA-labelled peptides, bovine sperm; format: cell-based
Method: (§4) Isolated bovine and human spermatozoa (4 x10^7 cells) were suspended and incubated with 10 µM TAMRA-labeled peptides for 1 h at 37 °C in a humidified atmosphere of 95% air/5 % CO2. Cells were then washed three times (800 g for 5 min) in ALLGrade Wash medium (LigeGlobal, Brussels, Belgium). To confirm if the fluorescently labeled peptides were not merely surface associated, the sperm cell population was divided in two and a trypsin incubation was used to remove any surface associated peptides. In summary, half of the cells were set aside (2 x10^7 cells) and fixed in 4 % paraformaldehyde (PFA) for 20 min. The other half was incubated with 1 % (wt/vol) trypsin at 37 °C, collected by centrifugation at 3000 g, washed in ALLGrade Wash medium (LigeGlobal, Brussels, Belgium) and resuspended in 4 % PFA 20 min. Fixed cells from each preparation were spread into coverslips and allowed to air dry. After mounting, slides were assessed by fluorescence microscopy (Imager.Z1, Axio-Cam HRm camera and AxioVision software, Zeiss, Jena, Germany). Translocation efficacies of CPP-mediated intracellular delivery of the peptides sequences were determined by the quantitative uptake analysis of fluorescently labeled moieties^[3]. Isolated bovine and human spermatozoa were incubated with 10 µM TAMRA-labeled peptides for 1 h at 37 °C in a humidified atmosphere of 5 % CO2. Cells were then washed four times with PBS, detached with 1 % (w/v) trypsin at 37 °C, collected by centrifugation at 3000 g and lysed in 300 µl 0.1 M NaOH for 2 h on ice. 250 µl of each sample cell lysate were transferred to a black 96-well plate, and analyzed using an Infinite® 200 PRO (Tecan, Switzerland) (λAbs 544 nm/λEm 590 nm).

human spermatozoa [4] = assay: Intracellular accumulation / quantitative translocation of TAMRA-labelled peptides, human sperm; format: cell-based
Method: as §4, with “Isolated bovine and human spermatozoa (4 x10^7 cells) were suspended and incubated with 10 µM TAMRA-labeled peptides for 1 h at 37 °C in a humidified atmosphere of 95% air/5 % CO2.” left out, “Isolated bovine and human spermatozoa were incubated with 10 µM TAMRA-labeled peptides for 1 h at 37 °C in a humidified atmosphere of 5 % CO2.” left out

bovine spermatozoa [5] = format: cell-based
Method: Bovine spermatozoa viability was evaluated using the trypan blue viability test according to manufacturer's guidelines. Human spermatozoa viability was measured using the CellTiter 96® AQueous Non-Radioactive Cell Proliferation Assay (Promega, Madison, USA) according to manufacturer's guidelines.

PPP1CC2-AKAP4 complex = assay: Disruption of PPP1CC2-AKAP4 complex purified from human sperm (Figure 6B); format: binding; conditions: co-incubation, AKAP4-BM at 10 µM
Method: To establish that the detected fluorescence was not attributed to surface-associated peptide, isolated sperm cells were incubated for 1h with 10µM TAMRA-labelled peptide and subsequently treated with 1% (w/v) trypsin to remove any peptide bound to the surface of spermatozoa. Negative controls without the TAMRA-labelled peptides were performed and presented no reactivity. Images are representative from three independent experiments. Lower panel (right): Quantitative analyses of peptide translocation into bovine and human spermatozoa. Bovine and human spermatozoa were incubated with TAMRA-labelled bioportides (10µM) for 1 h at 37°C. Data are expressed as fluorescence (minus negative control). Three independent experiments were performed in quadruplicate. […] Graph bars represent the mean values of three independent experiments performed in triplicate. Error bars 95% CI. […] Graph bars represent the mean values of three independent experiments performed in triplicate. Error bars 95% CI. […] Images are representative from 3 independent experiments. […] A PPP1CC2-AKAP4 complex was purified from human sperm (Lane 1, left). […] 12, a PPP1 inhibitor, was used as a positive control and, as expected, also decreases the interaction (lane 4). […]

[6] = 10 µM, 1h, compared with negative control
[7] = 10 µM, 2h, compared with AKAP4-BM M
[8] = 10 µM, 2h, compared with negative control
[9] = 20 µM, 1h, compared with AKAP4-BM M
[10] = 20 µM, 1h, compared with negative control
[11] = 20 µM, 2h, compared with AKAP4-BM M
[12] = 20 µM, 2h, compared with negative control
[13] = 1h, compared with negative control
[14] = 2h, compared with negative control

## AKAP4-BM M: mutated homologue (GQQDQDRAAAAAVDVSTLNV) of AKAP4-BM coupled to the Penetratin CPP, used as a control [reference compound]
Bovine spermatozoa [1]; compared with negative control, two exceptions: fast progressive motility at 1h with 20 µM, immotile spermatozoa with 10 µM at 1h
  motility parameters: did not lead to significant differences
Human spermatozoa [2]; compared with negative control, one exception: fast progressive motility at 2h with 20 µM
  motility parameters: did not lead to significant differences
Bovine spermatozoa [3]; bovine spermatozoa, 10 µM TAMRA-labelled peptide, 1 h, 37 °C, trypsin treated
  internalization (microscopic analyses): internalized less efficiently
Human spermatozoa [4]; human spermatozoa, 5 µM, Figure 6A
  intracellular accumulation of red fluorescent (TAMRA) analogues: accumulate within normal healthy human spermatozoa
Human spermatozoa [4]; human spermatozoa, 10 µM TAMRA-labelled peptide, 1 h, 37 °C, trypsin treated
  internalization (microscopic analyses): internalized less efficiently

## GQQDQDRKVICFVDVSTLNVRQIKIWFQNRRMKWKK [AKAP4-BM]
Bovine spermatozoa [1]
  concentration-dependent effect on motility parameters: concentration-dependent effect
Bovine spermatozoa [1]; 10 µM, 1h, compared with AKAP4-BM M
  mean decrease in fast progressive motility: 41.9 ± 20.0%
Bovine spermatozoa [1]; [6]
  mean decrease in fast progressive motility: 49.8 ± 22.5%
Bovine spermatozoa [1]; [7]
  mean decrease in fast progressive motility: 43.9 ± 15.3%
  mean decrease in slow progressive motility: 21.6 ± 64.4%
Bovine spermatozoa [1]; [8]
  mean decrease in fast progressive motility: 50.5 ± 9.7%
  mean decrease in slow progressive motility: 42.4 ± 20.4%
Bovine spermatozoa [1]; [9]
  mean decrease in fast progressive motility: 95.0 ± 6.5%
  mean decrease in non-progressive motility: 63.1 ± 8.3%
Bovine spermatozoa [1]; [10]
  immotile spermatozoa, mean increase: 91.8 ± 25.4%
  mean decrease in non-progressive motility: 50.0 ± 10.9%
  mean decrease in slow progressive motility: 95.3 ± 4.8%
Bovine spermatozoa [1]; [11]
  mean decrease in fast progressive motility: 98,4 ± 2,6%
  mean decrease in non-progressive motility: 63.0 ± 7.5%
  mean decrease in slow progressive motility: 94.1 ± 4.9%
Bovine spermatozoa [1]; [12]
  immotile spermatozoa, mean increase: 183.7 ± 88.4%
  mean decrease in fast progressive motility: 98.6 ± 2.9%
  mean decrease in slow progressive motility: 94.2 ± 4.8%
Human spermatozoa [2]; human sperm, Figure 6C left panel
  progressive motility: statistically significant decrease in progressive motility
Human spermatozoa [2]; human sperm, Figure 6C middle panel
  percentage of immotile spermatozoa: corresponding increase in the percentage of immotile spermatozoa
Human spermatozoa [2]; 1h, compared with AKAP4-BM M
  immotile spermatozoa increased (printed: mean decrease): 47.3 ± 19.2%
  mean decrease in fast progressive motility: 87.0 ± 4.3%
  mean decrease in non-progressive motility: 43.4 ± 24.8%
  mean decrease in slow progressive motility: 85.1 ± 5.2%
Human spermatozoa [2]; [13]
  immotile spermatozoa increased (printed: mean decrease): 63.0 ± 27.8%
  mean decrease in fast progressive motility: 49.8 ± 22.5%
  mean decrease in non-progressive motility: 31.0 ± 26.9%
  mean decrease in slow progressive motility: 87,6 ± 5,2%
Human spermatozoa [2]; 2h, compared with AKAP4-BM M
  immotile spermatozoa increased (printed: mean decrease): 41.9 ± 14.7%
  mean decrease in fast progressive motility: 82.7 ± 20.7%
  mean decrease in non-progressive motility: 50.6 ± 21.0%
  mean decrease in slow progressive motility: 82.3 ± 11.5%
Human spermatozoa [2]; [14]
  immotile spermatozoa increased (printed: mean decrease): 74.5 ± 28.3%
  mean decrease in fast progressive motility: 50.5 ± 9.7%
  mean decrease in non-progressive motility: 58.6 ± 16.1%
  mean decrease in slow progressive motility: 85,7 ± 8,7%
Bovine spermatozoa [5]
  percentage of viable spermatozoa: slight decrease
Bovine spermatozoa [3]
  internalization (microscopic analyses): internalized very efficiently
Human spermatozoa [4]
  internalization (microscopic analyses): internalized very efficiently
PPP1CC2-AKAP4 complex
  interaction between PPP1CC2 and AKAP4: disrupts the PPP1CC2-AKAP4 complex

## RQIKIWFQNRRMKWKKKPNATRPVTPPRVASGLNPSIQKASNYRNNTVLY (H-RQIKIWFQNRRMKWKKKPNATRPVTPPRVASGLNPSIQKASNYRNNTVLY-NH2) [PPP1CC2-CT]
Bovine spermatozoa [1]
  concentration-dependent effect on motility parameters: no concentration-dependent effect
Bovine spermatozoa [1]; [6]
  immotile spermatozoa, mean increase: 72.5 ± 33.6%
  mean decrease in fast progressive motility: 55.9 ± 19.4%
  mean decrease in slow progressive motility: 49.9 ± 41%
Bovine spermatozoa [1]; [8]
  immotile spermatozoa, mean increase: 128.3 ± 85.3%
  mean decrease in fast progressive motility: 53.9 ± 19.9%
  mean decrease in slow progressive motility: 17.4 ± 57%
Bovine spermatozoa [1]; [10]
  immotile spermatozoa, mean increase: 86.2 ± 72.3%
  mean decrease in fast progressive motility: 64.2 ± 8.3%
  mean decrease in slow progressive motility: 31.4 ± 35%
Bovine spermatozoa [1]; [12]
  mean decrease in fast progressive motility: 44.6 ± 9.7%
Bovine spermatozoa [1]; 10 and 20 µM, 1 and 2 h, Figure 3
  non-progressive motility: No significant alterations
Human spermatozoa [2]; 10 µM
  motility parameters: did not induce any significant alterations
Human spermatozoa [2]; [14]
  mean decrease in fast progressive motility: 34.5 ± 12.3%
Bovine spermatozoa [3]
  internalization (microscopic analyses): internalized very efficiently
Human spermatozoa [4]
  internalization (microscopic analyses): internalized very efficiently
